{"source": "BindingDB's records for doi:10.1021/jm801343r", "about": "(University of Washington At Seattle, 2009)", "experiment_in_all_cases": "DHODH Inhibition Assay", "key": {"[1]": {"biological_target": "T1, Dihydroorotate dehydrogenase (quinone), mitochondrial (Plasmodium falciparum (isolate 3D7), UniProt Q08210)", "T1 sequence (Q08210 whole entry)": "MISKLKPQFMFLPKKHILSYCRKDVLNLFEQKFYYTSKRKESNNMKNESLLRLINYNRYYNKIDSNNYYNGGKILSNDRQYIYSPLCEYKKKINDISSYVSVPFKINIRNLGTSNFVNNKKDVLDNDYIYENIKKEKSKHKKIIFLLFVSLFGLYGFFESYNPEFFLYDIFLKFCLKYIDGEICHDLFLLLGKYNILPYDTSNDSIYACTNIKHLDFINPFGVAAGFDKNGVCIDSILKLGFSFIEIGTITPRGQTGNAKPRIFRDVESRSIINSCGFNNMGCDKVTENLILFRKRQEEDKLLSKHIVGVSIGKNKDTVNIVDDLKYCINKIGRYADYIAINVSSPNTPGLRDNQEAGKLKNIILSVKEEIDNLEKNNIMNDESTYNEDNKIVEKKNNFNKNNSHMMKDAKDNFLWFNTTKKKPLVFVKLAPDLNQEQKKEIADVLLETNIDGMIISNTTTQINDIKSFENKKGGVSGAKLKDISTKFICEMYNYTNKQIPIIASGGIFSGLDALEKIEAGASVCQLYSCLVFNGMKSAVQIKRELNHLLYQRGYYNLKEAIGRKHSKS", "procedure": "(§1) The assays were carried out by using a colorimetric DCIP method, which uses the colorimetric reagent 2, 6-dichlorophenolindophenol as the final electron acceptor. DCIP reduction is stoichiometrically equivalent to oxidation of dihydroorotate. Changes in absorbance were quantified on a plate reader and data were analyzed to measure the reduction of DCIP as a decrease in absorbance at 600 nm."}, "[2]": {"biological_target": "T2, Dihydroorotate dehydrogenase (quinone), mitochondrial [100-517] (Plasmodium berghei (strain Anka), UniProt A0A509AEH5)", "T2 construct": "100-517", "T2 sequence (A0A509AEH5 whole entry)": "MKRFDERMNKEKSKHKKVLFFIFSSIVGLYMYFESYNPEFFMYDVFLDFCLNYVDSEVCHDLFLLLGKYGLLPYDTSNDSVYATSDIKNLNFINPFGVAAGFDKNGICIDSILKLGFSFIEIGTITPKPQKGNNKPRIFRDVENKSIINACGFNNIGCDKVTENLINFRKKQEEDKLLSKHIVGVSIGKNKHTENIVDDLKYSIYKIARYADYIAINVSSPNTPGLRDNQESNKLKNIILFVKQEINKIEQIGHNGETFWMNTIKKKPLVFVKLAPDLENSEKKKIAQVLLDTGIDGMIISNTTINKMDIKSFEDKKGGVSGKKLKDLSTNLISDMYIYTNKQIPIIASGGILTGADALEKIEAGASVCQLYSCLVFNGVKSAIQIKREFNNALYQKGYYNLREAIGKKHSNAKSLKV", "procedure": "as §1"}, "[3]": {"biological_target": "T3, Dihydroorotate dehydrogenase (quinone), mitochondrial [30-395] (Homo sapiens, UniProt Q02127)", "T3 construct": "30-395", "T3 sequence (Q02127 30-395)": "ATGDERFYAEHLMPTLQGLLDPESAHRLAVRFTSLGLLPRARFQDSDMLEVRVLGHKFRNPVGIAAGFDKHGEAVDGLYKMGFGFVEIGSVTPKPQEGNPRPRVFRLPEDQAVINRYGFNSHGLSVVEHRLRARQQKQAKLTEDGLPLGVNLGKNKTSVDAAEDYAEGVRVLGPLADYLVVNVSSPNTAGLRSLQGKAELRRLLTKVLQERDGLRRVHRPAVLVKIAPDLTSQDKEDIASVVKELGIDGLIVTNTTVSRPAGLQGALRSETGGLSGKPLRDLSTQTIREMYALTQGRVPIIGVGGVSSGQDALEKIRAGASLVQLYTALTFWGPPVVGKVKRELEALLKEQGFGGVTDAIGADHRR", "procedure": "as §1"}}}
{"smiles": "Cc1cc(Nc2ccccc2F)n2ncnc2n1", "note": "[N-(2-fluorophenyl)-5-methyl-[1,2,4]triazolo[1,5-a]pyrimidin-7-amine]", "values": [{"measurement": "IC50", "setting": "[1]; pH 8, 20 °C", "result": "> 100", "unit": "µM"}, {"measurement": "IC50", "setting": "[2]", "result": "> 100", "unit": "µM"}]}
{"smiles": "Cc1cc(Nc2ccc3cc4ccccc4cc3c2)n2ncnc2n1", "note": "[N-(anthracen-2-yl)-5-methyl-[1,2,4]triazolo[1,5-a]pyrimidin-7-amine]", "values": [{"measurement": "IC50", "setting": "[3]", "result": "> 200", "unit": "µM"}, {"measurement": "IC50", "setting": "[2]", "result": 3.7, "unit": "µM"}]}
{"smiles": "Cc1cc(Nc2c(F)cccc2F)n2ncnc2n1", "note": "[N-(2,6-difluorophenyl)-5-methyl-[1,2,4]triazolo[1,5-a]pyrimidin-7-amine]", "values": [{"measurement": "IC50", "setting": "[1]; pH 8, 20 °C", "result": "> 100", "unit": "µM"}, {"measurement": "IC50", "setting": "[2]", "result": "> 100", "unit": "µM"}]}
{"smiles": "Cc1cc(Nc2ccccc2Cl)n2ncnc2n1", "note": "[N-(2-chlorophenyl)-5-methyl-[1,2,4]triazolo[1,5-a]pyrimidin-7-amine]", "values": [{"measurement": "IC50", "setting": "[1]; pH 8, 20 °C", "result": "> 100", "unit": "µM"}, {"measurement": "IC50", "setting": "[2]", "result": "> 100", "unit": "µM"}]}
{"smiles": "Cc1cc(Nc2ccc(F)cc2)n2ncnc2n1", "note": "[N-(4-fluorophenyl)-5-methyl-[1,2,4]triazolo[1,5-a]pyrimidin-7-amine]", "values": [{"measurement": "IC50", "setting": "[2]", "result": "> 100", "unit": "µM"}]}
{"smiles": "COc1ccc(Nc2cc(C)nc3ncnn23)cc1", "note": "[N-(4-methoxyphenyl)-5-methyl-[1,2,4]triazolo[1,5-a]pyrimidin-7-amine]", "values": [{"measurement": "IC50", "setting": "[2]", "result": "> 50", "unit": "µM"}]}
{"smiles": "Cc1cc(Nc2cccc(F)c2)n2ncnc2n1", "note": "[N-(3-fluorophenyl)-5-methyl-[1,2,4]triazolo[1,5-a]pyrimidin-7-amine]", "values": [{"measurement": "IC50", "setting": "[2]", "result": "> 100", "unit": "µM"}]}
{"smiles": "Cc1cc(Nc2ccccc2C#N)n2ncnc2n1", "note": "[2-({5-methyl-[1,2,4]triazolo[1,5-a]pyrimidin-7-yl}amino)benzonitrile]", "values": [{"measurement": "IC50", "setting": "[1]; pH 8, 20 °C", "result": "> 100", "unit": "µM"}, {"measurement": "IC50", "setting": "[2]", "result": "> 100", "unit": "µM"}]}
{"smiles": "Cc1cc(Nc2ccccc2)n2ncnc2n1", "note": "[JMC521864 Compund DSM12]", "values": [{"measurement": "IC50", "setting": "[1]; pH 8, 20 °C", "result": "> 200", "unit": "µM"}, {"measurement": "IC50", "setting": "[3]", "result": "> 200", "unit": "µM"}, {"measurement": "IC50", "setting": "[2]", "result": "> 10", "unit": "µM"}]}
{"smiles": "Cc1cc(Nc2c(F)cc(F)cc2F)n2ncnc2n1", "note": "[5-methyl-N-(2,4,6-trifluorophenyl)-[1,2,4]triazolo[1,5-a]pyrimidin-7-amine]", "values": [{"measurement": "IC50", "setting": "[1]; pH 8, 20 °C", "result": "> 100", "unit": "µM"}, {"measurement": "IC50", "setting": "[2]", "result": "> 100", "unit": "µM"}]}
{"smiles": "Cc1cc(Nc2c(F)c(F)c(F)c(F)c2F)n2ncnc2n1", "note": "[5-methyl-N-(2,3,4,5,6-pentafluorophenyl)-[1,2,4]triazolo[1,5-a]pyrimidin-7-amine]", "values": [{"measurement": "IC50", "setting": "[1]", "result": "> 100", "unit": "µM"}, {"measurement": "IC50", "setting": "[2]", "result": "> 100", "unit": "µM"}]}
{"smiles": "Cc1cc(Nc2c(F)c(F)cc(F)c2F)n2ncnc2n1", "note": "[5-methyl-N-(2,3,5,6-tetrafluorophenyl)-[1,2,4]triazolo[1,5-a]pyrimidin-7-amine]", "values": [{"measurement": "IC50", "setting": "[1]; pH 8, 20 °C", "result": "> 100", "unit": "µM"}, {"measurement": "IC50", "setting": "[2]", "result": "> 100", "unit": "µM"}]}
{"smiles": "Cc1cc(Nc2ccccc2C)n2ncnc2n1", "note": "[5-methyl-N-(2-methylphenyl)-[1,2,4]triazolo[1,5-a]pyrimidin-7-amine]", "values": [{"measurement": "IC50", "setting": "[1]; pH 8, 20 °C", "result": "> 100", "unit": "µM"}, {"measurement": "IC50", "setting": "[2]", "result": "> 100", "unit": "µM"}]}
{"smiles": "Cc1cccc(Nc2cc(C)nc3ncnn23)c1", "note": "[5-methyl-N-(3-methylphenyl)-[1,2,4]triazolo[1,5-a]pyrimidin-7-amine]", "values": [{"measurement": "IC50", "setting": "[2]", "result": "> 100", "unit": "µM"}]}
{"smiles": "Cc1cc(Nc2cc(C(F)(F)F)cc(C(F)(F)F)c2)n2ncnc2n1", "note": "[N-[3,5-bis(trifluoromethyl)phenyl]-5-methyl-[1,2,4]triazolo[1,5-a]pyrimidin-7-amine]", "values": [{"measurement": "IC50", "setting": "[1]", "result": "> 100", "unit": "µM"}, {"measurement": "IC50", "setting": "[2]", "result": "> 100", "unit": "µM"}]}
{"smiles": "Cc1cc(Nc2cccc(F)c2F)n2ncnc2n1", "note": "[N-(2,3-difluorophenyl)-5-methyl-[1,2,4]triazolo[1,5-a]pyrimidin-7-amine]", "values": [{"measurement": "IC50", "setting": "[2]", "result": "> 100", "unit": "µM"}]}
{"smiles": "Cc1cc(Nc2ccc3ccccc3c2)n2ncnc2n1", "note": "[JMC521864 Compund DSM1]", "values": [{"measurement": "IC50", "setting": "[3]", "result": "> 200", "unit": "µM"}]}
{"smiles": "Cc1ccc(Nc2cc(C)nc3ncnn23)c(F)c1", "note": "[N-(2-fluoro-4-methylphenyl)-5-methyl-[1,2,4]triazolo[1,5-a]pyrimidin-7-amine]", "values": [{"measurement": "IC50", "setting": "[2]", "result": "> 100", "unit": "µM"}]}
{"smiles": "Cc1cc(Nc2cc(F)c(F)cc2F)n2ncnc2n1", "note": "[5-methyl-N-(2,4,5-trifluorophenyl)-[1,2,4]triazolo[1,5-a]pyrimidin-7-amine]", "values": [{"measurement": "IC50", "setting": "[2]", "result": "> 100", "unit": "µM"}]}
{"smiles": "Cc1cc(Nc2cc(F)ccc2F)n2ncnc2n1", "note": "[N-(2,5-difluorophenyl)-5-methyl-[1,2,4]triazolo[1,5-a]pyrimidin-7-amine]", "values": [{"measurement": "IC50", "setting": "[1]; pH 8, 20 °C", "result": "> 50", "unit": "µM"}, {"measurement": "IC50", "setting": "[2]", "result": "> 100", "unit": "µM"}]}
{"smiles": "Cc1cc(Nc2ccc(F)c(F)c2F)n2ncnc2n1", "note": "[5-methyl-N-(2,3,4-trifluorophenyl)-[1,2,4]triazolo[1,5-a]pyrimidin-7-amine]", "values": [{"measurement": "IC50", "setting": "[2]", "result": "> 100", "unit": "µM"}]}
{"smiles": "Cc1cc(Nc2ccc(Cc3ccccc3)cc2)n2ncnc2n1", "note": "[N-(4-benzylphenyl)-5-methyl-[1,2,4]triazolo[1,5-a]pyrimidin-7-amine]", "values": [{"measurement": "IC50", "setting": "[2]", "result": "> 100", "unit": "µM"}]}
{"smiles": "Cc1cc(Nc2ccccc2C(F)(F)F)n2ncnc2n1", "note": "[5-methyl-N-[2-(trifluoromethyl)phenyl]-[1,2,4]triazolo[1,5-a]pyrimidin-7-amine]", "values": [{"measurement": "IC50", "setting": "[1]; pH 8, 20 °C", "result": "> 100", "unit": "µM"}, {"measurement": "IC50", "setting": "[2]", "result": "> 100", "unit": "µM"}]}
